Blank lines part the entries; values can stand above or below the molecule they belong to. Where a SMILES comes first, the peptide text is derived from it. The star is where a group is joined. Palmitoyl = CCCCCCCCCCCCCCCC(=O)*
Columns and labels:
[1] = Example 5: compositions of the invention to solubilise exemplary active agents (visual clarity, pH on clearing, clarity at pH 7); details: SMA 3000HNa 2.5%, 90H 1%, S LPC 0.01%
Protocol: A stock emulsion of cosurfactant, membrane forming lipid and active was prepared at double the desired final concentration. Cosurfactant was dissolved in water while heating (approximately 50° C.) and stirring. Lipid was then added, followed by continued stirring and heating until a uniform emulsion is formed. The emulsion was then homogenised for 10 minutes. After re-heating to approximately 50° C. the active component was added slowly under stirring until a uniform emulsion was present. The final emulsion was then homogenised for a further 10 minutes.
Stock solutions were prepared by mixing of the hydrolysed polymer with the appropriate volume of water.
Polymer/lipid mixtures were then prepared by the dropwise addition of the lipid containing emulsion to an equal volume of polymer solution while stirring and heating to approximately 50° C.
The pH of the mixtures was adjusted to determine the critical pH level at which macromolecular assemblies formed, and whether the resulting clear and colourless solution would remain at physiological pH.
Percentage values specified in this experiment refer to the weight of the component in question as a proportion of the total weight of the composition.
Mixtures were visually examined to determine whether the polymer/lipid assemblies had solubilised the active agent in the aqueous medium. The clarity of a mixture was categorised as being clear if there was no significant visible opacity to the naked eye, whereas a mixture was categorised as cloudy if there was significant visible disruption to the passage of light.

[2] = Example 5 Supplemental: turbidity meter (Nephla) of compositions with active agents over time (Table 12a); assay type: physicochemical; details: SMA 3000P (hydrolysed) 2.5%, lipid 90H 1%; as to clarity: key: Clear: categorised as being clear if there was no significant visible opacity to the naked eye; Cloudy: categorised as cloudy if there was significant visible disruption to the passage of light
Protocol: The turbidity meter was calibrated prior to use, with two known standards (0 and 40 FNU).
After the final stage of sample preparation (i.e. adjustment of the pH to physiological) samples were course filtered through Whatman 541 filter paper to remove any gross matter which could interfere with turbidity measurement. Immediately after filtration the first turbidity measurement was taken. Mixtures were stored at 4° C. following the initial measurement, and remeasured at later time points.

[3] = Example 7: cosmetic gel preparation of Asc-P, clarity at pH 7; assay type: physicochemical; details: Solution A (hydrolysed SMA3000P 2.5%, 90H 1.0%, S-LPC 0.01%, Asc-P 0.1%, Phenonip 0.1%) mixed 1:1 with xanthan gum/carbopol gel
Protocol: The emulsion was then homogenised for 10 minutes.
Preservative was then added to the solution and the pH adjusted.
Xanthan gum and carbopol were mixed with water and stirred until a uniform gel was formed. The pH was then adjusted to 7.
Solution A and Solution B were then mixed in equal volumes to produce the final preparation.

[4] = S LPC 0.01%, active agent 0.25%
[5] = SL 30-3 0.05% (S LPC content 0.01%), active agent 0.80%
[6] = S LPC 0.01%, active agent 0.15%

Clarity ([1]; active agent 0.1%): Clear
Clarity at pH 7 ([1]; active agent 0.1%): Clear
pH on clearing ([1]; active agent 0.1%): 8.89
Molecule: CCCCCCCCC(CCCCCC)C(=O)OC[C@H](OC(=O)C(CCCCCC)CCCCCCCC)[C@H]1OC(=O)C(OC(=O)C(CCCCCC)CCCCCCCC)=C1OC(=O)C(CCCCCC)CCCCCCCC (stereo partly drawn) [VC-IP]

Clarity ([2]; S LPC 0.01%, active agent 0.1%): Clear
pH on clearing ([2]; S LPC 0.01%, active agent 0.1%): 8.81
Turbidity at pH 7 (FNU) ([2]; S LPC 0.01%, active agent 0.1%): 24.50 FNU
Molecule: CCCCC(CC)COC(=O)C=Cc1ccc(OC)cc1 (stereo not drawn) [Eusolex 2292, Octyl methoxycinimate]

Molecule: C[C@@H]1[C@H](O)[C@@H](C)/C=C/C=C/CC/C=C/C=C/C=C/C=C/C(O[C@H]2O[C@H](C)[C@@H](O)[C@H](N)[C@@H]2O)CC2O[C@](O)(CC(O)C(O)CCC(O)CC(O)CC(O)CC(=O)O[C@H]1C)CC(O)C2C(=O)O (stereo partly drawn) [Nystatin, reference compound]
Clarity ([2]; S LPC 0.01%, active agent 0.1%): Clear
pH on clearing ([2]; S LPC 0.01%, active agent 0.1%): 8.85
Turbidity at pH 7 (FNU) ([2]; S LPC 0.01%, active agent 0.1%): 6.93 FNU

Molecule: CC(C)CCC[C@@H](C)[C@H]1CC[C@H]2C3=CC=C4C[C@@H](O)CC[C@]4(C)[C@H]3CC[C@]12C [7-DHC, 7-Dehydrocholesterol]
Clarity ([2]; S LPC 0.01%, active agent 0.1%): Clear
pH on clearing ([2]; S LPC 0.01%, active agent 0.1%): 8.91
Turbidity at pH 7 (FNU) ([2]; S LPC 0.01%, active agent 0.1%): 7.28 FNU

Clarity ([2]; S LPC 0.01%, active agent 0.1%): Clear
pH on clearing ([2]; S LPC 0.01%, active agent 0.1%): 8.98
Turbidity at pH 7 (FNU) ([2]; S LPC 0.01%, active agent 0.1%): 120.7 FNU
Molecule: Ceramide IIIB [Cera. IIIB]

Clarity at pH 7 ([1]; active agent 0.3%): Clear
Molecule: acetyl hexapeptide 3 [Argir]

Clarity ([2]; S LPC 0.01%, active agent 0.1%): Clear
pH on clearing ([2]; S LPC 0.01%, active agent 0.1%): 8.85
Turbidity at pH 7 (FNU) ([2]; S LPC 0.01%, active agent 0.1%): 50 FNU
Molecule: CCC(=O)O[C@]1(C(=O)CCl)[C@@H](C)C[C@H]2[C@@H]3CCC4=CC(=O)C=C[C@]4(C)[C@@]3(F)[C@@H](O)C[C@@]21C [Clo. P, Clobetasol Propionate, reference compound]

Clarity ([1]; active agent 0.5%): Clear
Clarity at pH 7 ([1]; active agent 0.5%): Clear
pH on clearing ([1]; active agent 0.5%): 8.86
Molecule: CCCCCCCCCCCCCCCC(=O)N[C@@H](CCCCN)C(=O)N[C@H](C(=O)N[C@H](C(=O)N[C@@H](CCCCN)C(=O)N[C@@H](CO)C(=O)O)[C@@H](C)O)[C@@H](C)O [Mat, palmityl-KTTKS] (Palmitoyl-KTTKS-OH; C-terminus assumed)

Clarity [2, 4]: Clear
pH on clearing [2, 4]: 8.84
Turbidity at pH 7 (FNU) [2, 4]: 10.52 FNU
Molecule: CC(=O)OCC(=O)[C@@]1(O)[C@H](C)C[C@H]2[C@@H]3CCC4=CC(=O)C=C[C@]4(C)[C@@]3(F)[C@@H](O)C[C@@]21C [DEX A.A., Dexamethasone Acetate Anhydrous, reference compound]

Clarity ([2]; S LPC 0.01%, active agent 0.1%): Clear
pH on clearing ([2]; S LPC 0.01%, active agent 0.1%): 8.88
Turbidity at pH 7 (FNU) ([2]; S LPC 0.01%, active agent 0.1%): 62.0 FNU
Molecule: COc1ccc(C(=O)CC(=O)c2ccc(C(C)(C)C)cc2)cc1 [Avobenzene]

Molecule: C=C1CC[C@H](O)C/C1=C/C=C1\CCC[C@]2(C)[C@@H]([C@H](C)CCCC(C)C)CC[C@@H]12 [Vitamin D3, Cholecalciferol, reference compound]
Clarity [2, 4]: Clear
pH on clearing [2, 4]: 8.59
Turbidity at pH 7 (FNU) [2, 4]: 19.78 FNU

Clarity [2, 4]: Clear
pH on clearing [2, 4]: 8.92
Turbidity at pH 7 (FNU) [2, 4]: 39.6 FNU
Molecule: CC(=O)OCC(=O)[C@@]1(O)CC[C@H]2[C@@H]3CCC4=CC(=O)CC[C@]4(C)[C@H]3[C@@H](O)C[C@@]21C [HC A, Hydrocortisone Acetate, reference compound]

Appearance of cosmetic preparation [3]: clear and colourless aqueous gel
Clarity at pH 7 ([1]; active agent 0.1%): Clear
pH on clearing ([1]; active agent 0.1%): 8.87
Molecule: CCCCCCCCCCCCCCCC(=O)OC[C@H](O)[C@H]1OC(=O)C(O)=C1O [Asc-P, L-ascorbyl palmitate]

Clarity ([1]; active agent 0.1%): Clear
Clarity at pH 7 ([1]; active agent 0.1%): Clear
pH on clearing ([1]; active agent 0.1%): 8.83
Clarity ([1]; active agent 0.25%): Clear
Clarity at pH 7 ([1]; active agent 0.25%): Clear
pH on clearing ([1]; active agent 0.25%): 8.83
Molecule: CC1=C(/C=C/C(C)=C/C=C/C(C)=C/C=C/C=C(C)/C=C/C=C(C)/C=C/C2=C(C)CCCC2(C)C)C(C)(C)CCC1 [β-Car, β-carotene]

Clarity [2, 5]: Clear
Turbidity at pH 7 (FNU) [2, 5]: 3.52 FNU
Molecule: Cc1cc(CC(C)CC(C)(C)C)n(O)c(=O)c1.NCCO (stereo not drawn) [Octopirox, Piroctone olamine]

Clarity ([2]; S LPC 0.01%, active agent 0.1%): Clear
pH on clearing ([2]; S LPC 0.01%, active agent 0.1%): 8.82
Turbidity at pH 7 (FNU) ([2]; S LPC 0.01%, active agent 0.1%): 42.80 FNU
Molecule: NC[C@@H]1O[C@H](O[C@H]2[C@@H](O)[C@H](O[C@@H]3[C@@H](O)[C@H](N)C[C@H](N)[C@H]3O[C@H]3O[C@H](CN)[C@@H](O)[C@H](O)[C@H]3N)O[C@@H]2CO)[C@H](N)[C@@H](O)[C@@H]1O.O=S(=O)(O)O [Neo. Sulphate, Neomycin Sulphate, reference compound]

Molecule: Erythromycin Sulphate [Erythro., reference compound]
Clarity ([2]; S LPC 0.01%, active agent 0.1%): Clear
pH on clearing ([2]; S LPC 0.01%, active agent 0.1%): 8.86
Turbidity at pH 7 (FNU) ([2]; S LPC 0.01%, active agent 0.1%): 18.20 FNU

Clarity [2, 4]: Clear
pH on clearing [2, 4]: 8.97
Turbidity at pH 7 (FNU) [2, 4]: 9.09 FNU
Molecule: C[C@]12CCC(=O)C=C1CC[C@@H]1[C@@H]2[C@@H](O)C[C@@]2(C)[C@H]1CC[C@]2(O)C(=O)CO [HC, Hydrocortisone, reference compound]

Clarity [2, 4]: Clear
pH on clearing [2, 4]: 8.87
Turbidity at pH 7 (FNU) [2, 4]: 14.28 FNU
Molecule: CC(=O)OCC(=O)[C@@]1(O)CC[C@H]2[C@@H]3CCC4=CC(=O)CC[C@]4(C)[C@H]3C(=O)C[C@@]21C [Cort. A., Cortisone Acetate, reference compound]

Clarity ([2]; S LPC 0.01%, active agent 0.1%): Clear
pH on clearing ([2]; S LPC 0.01%, active agent 0.1%): 8.94
Turbidity at pH 7 (FNU) ([2]; S LPC 0.01%, active agent 0.1%): 63.0 FNU
Molecule: CCCC(=O)O[C@]1(C(=O)CCl)[C@H](C)C[C@@H]2[C@@H]3CCC4=CC(=O)C=C[C@]4(C)[C@]3(F)C(=O)C[C@@]21C [Clo. But]

Clarity ([2]; S LPC 0.01%, active agent 0.1%): Clear
pH on clearing ([2]; S LPC 0.01%, active agent 0.1%): 8.96
Turbidity at pH 7 (FNU) ([2]; S LPC 0.01%, active agent 0.1%): 31.00 FNU
Molecule: COc1ccc(C(=O)c2ccccc2)c(O)c1 [Eusolex 4360, Benzophenone-3]

Clarity [2, 6]: Clear
pH on clearing [2, 6]: 8.94
Turbidity at pH 7 (FNU) [2, 6]: 9.46 FNU
Molecule: CC12CCC(C(=Cc3ccccc3)C1=O)C2(C)C (stereo not drawn) [Unisol S-22, 3-Benzylidene camphor]

Clarity ([1]; active agent 0.25%): Clear
Clarity at pH 7 ([1]; active agent 0.25%): Clear
pH on clearing ([1]; active agent 0.25%): 8.95
Molecule: CCCCCCCCCCCCCCCC(=O)OC/C=C(C)/C=C/C=C(C)/C=C/C1=C(C)CCCC1(C)C [Ret-P, Retinol palmitate]

Clarity ([2]; S LPC 0.01%, active agent 0.1%): Clear
pH on clearing ([2]; S LPC 0.01%, active agent 0.1%): 8.78
Turbidity at pH 7 (FNU) ([2]; S LPC 0.01%, active agent 0.1%): 5.91 FNU
Molecule: Clc1ccccc1C(c1ccccc1)(c1ccccc1)n1ccnc1 [Clot., Clotrimazole, reference compound]

Clarity ([1]; active agent 0.1%): Clear
Clarity at pH 7 ([1]; active agent 0.1%): Clear
pH on clearing ([1]; active agent 0.1%): 8.95
Molecule: CC(C)CCC[C@@H](C)[C@H]1CC[C@H]2[C@@H]3CC=C4C[C@@H](O)CC[C@]4(C)[C@H]3CC[C@]12C [Chol, Cholesterol]

Clarity ([2]; S LPC 0.01%, active agent 0.1%): Clear
pH on clearing ([2]; S LPC 0.01%, active agent 0.1%): 8.86
Turbidity at pH 7 (FNU) ([2]; S LPC 0.01%, active agent 0.1%): 33.1 FNU
Molecule: CCCC(=O)O[C@]1(C(=O)CO)CC[C@H]2[C@@H]3CCC4=CC(=O)CC[C@]4(C)[C@H]3[C@@H](O)C[C@@]21C [HC But]

Clarity [2, 4]: Clear
pH on clearing [2, 4]: 8.84
Turbidity at pH 7 (FNU) [2, 4]: 28.9 FNU
Molecule: CC(C)[C@@H]1CC[C@@H](C)C[C@H]1OC(=O)C1CCC(=O)N1 (stereo partly drawn) [Questice]

Clarity ([1]; active agent 0.1%): Clear
Clarity at pH 7 ([1]; active agent 0.1%): Clear
pH on clearing ([1]; active agent 0.1%): 8.89
Molecule: CCCCCCCCCCCCCCCC(=O)OC[C@H](O)[C@H]1OC(=O)C(OC(=O)CCCCCCCCCCCCCCC)=C1O [CP]

Clarity ([2]; S LPC 0.01%, active agent 0.1%): Clear
pH on clearing ([2]; S LPC 0.01%, active agent 0.1%): 8.89
Turbidity at pH 7 (FNU) ([2]; S LPC 0.01%, active agent 0.1%): 23.20 FNU
Molecule: Nc1ccc(C(=O)O)cc1 [PABA, 4-Aminobenzoic acid]

Clarity ([1]; active agent 0.1%): Clear
Clarity at pH 7 ([1]; active agent 0.1%): Clear
pH on clearing ([1]; active agent 0.1%): 8.89
Molecule: Ceramide IIIA

Clarity ([2]; S LPC 0.01%, active agent 0.1%): Clear
pH on clearing ([2]; S LPC 0.01%, active agent 0.1%): 8.98
Turbidity at pH 7 (FNU) ([2]; S LPC 0.01%, active agent 0.1%): 27.7 FNU
Molecule: CC(Cc1ccc(O)c(O)c1)C(C)Cc1ccc(O)c(O)c1 (stereo not drawn) [NDGA, Nordihydroguaiaretic acid]

Clarity ([2]; S LPC 0.01%, active agent 0.1%): Clear
pH on clearing ([2]; S LPC 0.01%, active agent 0.1%): 8.81
Turbidity at pH 7 (FNU) ([2]; S LPC 0.01%, active agent 0.1%): 17.81 FNU
Molecule: CC(C)CCC[C@@H](C)[C@H]1CC[C@H]2[C@@H]3CC=C4C[C@@H](OS(=O)(=O)O)CC[C@]4(C)[C@H]3CC[C@]12C [Chol Sulphate]

Molecule: CC(=O)N1CCN(c2ccc(OCC3COC(Cn4ccnc4)(c4ccc(Cl)cc4Cl)O3)cc2)CC1 (stereo not drawn) [Keta., Ketaconazole, reference compound]
Clarity ([2]; S LPC 0.01%, active agent 0.1%): Clear
pH on clearing ([2]; S LPC 0.01%, active agent 0.1%): 8.63
Turbidity at pH 7 (FNU) ([2]; S LPC 0.01%, active agent 0.1%): 40.75 FNU
Clarity ([2]; S LPC 0.01%, active agent 0.4%): Clear
pH on clearing ([2]; S LPC 0.01%, active agent 0.4%): 8.83
Turbidity at pH 7 (FNU) ([2]; S LPC 0.01%, active agent 0.4%): 74.5 FNU

— patent US8623414B2, “Compositions comprising a lipid and copolymer of styrene and maleic acid” (Malvren Cosmeceutics Limited, priority 2005, dated 2014)
